Assay results: US20230049952A1, “METHODS AND COMPOUNDS FOR RESTORING MUTANT P53 FUNCTION” (PMV Pharmaceuticals, Inc., priority 2020, published 2023)

Tested on: p53 signaling pathway in MT373 tumors
Experiment: MT373 syngeneic sarcoma model: mouse p53 signaling pathway profiling panel
Format: in vivo
Details: for Actb* mRNA (housekeeping or reference gene), Fold Increase Over Vehicle Control or Percent Reduction Compared to Vehicle Control (%) / B2m* mRNA (housekeeping or reference gene), Fold Increase Over Vehicle Control or Percent Reduction Compared to Vehicle Control (%) / Gapdh* mRNA (housekeeping or reference gene), Fold Increase Over Vehicle Control or Percent Reduction Compared to Vehicle Control (%) / Gusb* mRNA (housekeeping or reference gene), Fold Increase Over Vehicle Control or Percent Reduction Compared to Vehicle Control (%) / Hsp90ab1* mRNA (housekeeping or reference gene), Fold Increase Over Vehicle Control or Percent Reduction Compared to Vehicle Control (%) / MGDC* (housekeeping or reference gene), Fold Increase Over Vehicle Control or Percent Reduction Compared to Vehicle Control (%) / Trp63 mRNA, Fold Increase Over Vehicle Control or Percent Reduction Compared to Vehicle Control (%) / Trp73 mRNA, Fold Increase Over Vehicle Control or Percent Reduction Compared to Vehicle Control (%) / Wt1 mRNA, Fold Increase Over Vehicle Control or Percent Reduction Compared to Vehicle Control (%) / Zmat3 mRNA, Fold Increase Over Vehicle Control or Percent Reduction Compared to Vehicle Control (%): MT373 tumors

Structure (SMILES): CCn1c(C#CCNc2ccccc2)cc2cc(CNC3CCN(C)CC3)ccc21 [Compound 1, 1-Anilino-3-{1-ethyl-5-[(1-methyl-4-piperidylamino)methyl]-1H-indol-2-yl}-2-propyne]
- Il6 mRNA change (150 mg/kg BID×1, 24 h): 85.31%
- Mdm2 mRNA increase (150 mg/kg BID×1, 24 h): 5.96 fold
- Sesn2 mRNA increase (150 mg/kg BID×1, 24 h): 2.45 fold
- Zmat3 mRNA increase (150 mg/kg BID×1, 24 h): 6.17 fold
- Actb* mRNA (housekeeping or reference gene), Fold Increase Over Vehicle Control or Percent Reduction Compared to Vehicle Control (%) (75 mg/kg BIDx1, 8 h): 1.60 fold or %
- B2m* mRNA (housekeeping or reference gene), Fold Increase Over Vehicle Control or Percent Reduction Compared to Vehicle Control (%) (75 mg/kg BIDx1, 8 h): 1.16 fold or %
- Gapdh* mRNA (housekeeping or reference gene), Fold Increase Over Vehicle Control or Percent Reduction Compared to Vehicle Control (%) (75 mg/kg BIDx1, 8 h): 11.24 fold or %
- Gusb* mRNA (housekeeping or reference gene), Fold Increase Over Vehicle Control or Percent Reduction Compared to Vehicle Control (%) (75 mg/kg BIDx1, 8 h): 1.12 fold or %
- Hsp90ab1* mRNA (housekeeping or reference gene), Fold Increase Over Vehicle Control or Percent Reduction Compared to Vehicle Control (%) (75 mg/kg BIDx1, 8 h): 10.06 fold or %
- MGDC* (housekeeping or reference gene), Fold Increase Over Vehicle Control or Percent Reduction Compared to Vehicle Control (%) (75 mg/kg BIDx1, 8 h): 1.79 fold or %
- Trp63 mRNA, Fold Increase Over Vehicle Control or Percent Reduction Compared to Vehicle Control (%) (75 mg/kg BIDx1, 8 h): 3.58 fold or %
- Trp73 mRNA, Fold Increase Over Vehicle Control or Percent Reduction Compared to Vehicle Control (%) (75 mg/kg BIDx1, 8 h): 16.09 fold or %
- Wt1 mRNA, Fold Increase Over Vehicle Control or Percent Reduction Compared to Vehicle Control (%) (75 mg/kg BIDx1, 8 h): 28.78 fold or %
- Zmat3 mRNA, Fold Increase Over Vehicle Control or Percent Reduction Compared to Vehicle Control (%) (75 mg/kg BIDx1, 8 h): 6.25 fold or %
- Actb* mRNA (housekeeping or reference gene), Fold Increase Over Vehicle Control or Percent Reduction Compared to Vehicle Control (%) (75 mg/kg BIDx1, 24 h): 1.08 fold or %
- B2m* mRNA (housekeeping or reference gene), Fold Increase Over Vehicle Control or Percent Reduction Compared to Vehicle Control (%) (75 mg/kg BIDx1, 24 h): 1.14 fold or %
- Gapdh* mRNA (housekeeping or reference gene), Fold Increase Over Vehicle Control or Percent Reduction Compared to Vehicle Control (%) (75 mg/kg BIDx1, 24 h): 13.68 fold or %
- Gusb* mRNA (housekeeping or reference gene), Fold Increase Over Vehicle Control or Percent Reduction Compared to Vehicle Control (%) (75 mg/kg BIDx1, 24 h): 1.25 fold or %
- Hsp90ab1* mRNA (housekeeping or reference gene), Fold Increase Over Vehicle Control or Percent Reduction Compared to Vehicle Control (%) (75 mg/kg BIDx1, 24 h): 17.39 fold or %
- MGDC* (housekeeping or reference gene), Fold Increase Over Vehicle Control or Percent Reduction Compared to Vehicle Control (%) (75 mg/kg BIDx1, 24 h): 1.27 fold or %
- Trp63 mRNA, Fold Increase Over Vehicle Control or Percent Reduction Compared to Vehicle Control (%) (75 mg/kg BIDx1, 24 h): 1.58 fold or %
- Trp73 mRNA, Fold Increase Over Vehicle Control or Percent Reduction Compared to Vehicle Control (%) (75 mg/kg BIDx1, 24 h): 1.01 fold or %
- Wt1 mRNA, Fold Increase Over Vehicle Control or Percent Reduction Compared to Vehicle Control (%) (75 mg/kg BIDx1, 24 h): 21.25 fold or %
- Zmat3 mRNA, Fold Increase Over Vehicle Control or Percent Reduction Compared to Vehicle Control (%) (75 mg/kg BIDx1, 24 h): 4.14 fold
- Actb* mRNA (housekeeping or reference gene), Fold Increase Over Vehicle Control or Percent Reduction Compared to Vehicle Control (%) (75 mg/kg BIDx1, 48 h): 1.07 fold or %
- B2m* mRNA (housekeeping or reference gene), Fold Increase Over Vehicle Control or Percent Reduction Compared to Vehicle Control (%) (75 mg/kg BIDx1, 48 h): 1.27 fold or %
- Gapdh* mRNA (housekeeping or reference gene), Fold Increase Over Vehicle Control or Percent Reduction Compared to Vehicle Control (%) (75 mg/kg BIDx1, 48 h): 34.54 fold or %
- Gusb* mRNA (housekeeping or reference gene), Fold Increase Over Vehicle Control or Percent Reduction Compared to Vehicle Control (%) (75 mg/kg BIDx1, 48 h): 1.31 fold or %
- Hsp90ab1* mRNA (housekeeping or reference gene), Fold Increase Over Vehicle Control or Percent Reduction Compared to Vehicle Control (%) (75 mg/kg BIDx1, 48 h): 12.45 fold or %
- MGDC* (housekeeping or reference gene), Fold Increase Over Vehicle Control or Percent Reduction Compared to Vehicle Control (%) (75 mg/kg BIDx1, 48 h): 1.78 fold or %
- Trp63 mRNA, Fold Increase Over Vehicle Control or Percent Reduction Compared to Vehicle Control (%) (75 mg/kg BIDx1, 48 h): 2.65 fold or %
- Trp73 mRNA, Fold Increase Over Vehicle Control or Percent Reduction Compared to Vehicle Control (%) (75 mg/kg BIDx1, 48 h): 3.40 fold or %
- Wt1 mRNA, Fold Increase Over Vehicle Control or Percent Reduction Compared to Vehicle Control (%) (75 mg/kg BIDx1, 48 h): 21.51 fold or %
- Zmat3 mRNA, Fold Increase Over Vehicle Control or Percent Reduction Compared to Vehicle Control (%) (75 mg/kg BIDx1, 48 h): 1.02 fold or %
- Actb* mRNA (housekeeping or reference gene), Fold Increase Over Vehicle Control or Percent Reduction Compared to Vehicle Control (%) (75 mg/kg BIDx1, 72 h): 1.06 fold or %
- B2m* mRNA (housekeeping or reference gene), Fold Increase Over Vehicle Control or Percent Reduction Compared to Vehicle Control (%) (75 mg/kg BIDx1, 72 h): 1.11 fold or %
- Gapdh* mRNA (housekeeping or reference gene), Fold Increase Over Vehicle Control or Percent Reduction Compared to Vehicle Control (%) (75 mg/kg BIDx1, 72 h): 14.41 fold or %
- Gusb* mRNA (housekeeping or reference gene), Fold Increase Over Vehicle Control or Percent Reduction Compared to Vehicle Control (%) (75 mg/kg BIDx1, 72 h): 1.11 fold or %
- Hsp90ab1* mRNA (housekeeping or reference gene), Fold Increase Over Vehicle Control or Percent Reduction Compared to Vehicle Control (%) (75 mg/kg BIDx1, 72 h): 7.83 fold or %
- MGDC* (housekeeping or reference gene), Fold Increase Over Vehicle Control or Percent Reduction Compared to Vehicle Control (%) (75 mg/kg BIDx1, 72 h): 1.36 fold or %
- Trp63 mRNA, Fold Increase Over Vehicle Control or Percent Reduction Compared to Vehicle Control (%) (75 mg/kg BIDx1, 72 h): 1.62 fold or %
- Trp73 mRNA, Fold Increase Over Vehicle Control or Percent Reduction Compared to Vehicle Control (%) (75 mg/kg BIDx1, 72 h): 1.00 fold or %
